Laboratory results as given in patent publication US20230094843A1, “PHARMACEUTICAL COMBINATION FOR TREATING TUMORS AND APPLICATION THEREOF” (FUKANG (SHANGHAI) HEALTH TECHNOLOGY CO., LTD, priority 2019, published 2023).

Assays:
[1] = tested on: BRCA-mutant and HER2-negative advanced breast cancer; settings: cited from earlier work
[2] = tested on: human-derived CD45+ cells (hCD45 cells); test: FACS assay of hCD45 in peripheral blood 3 weeks after PBMC grafting; assay type: in vivo, Mus Musculus, NCG; settings: FIG. 4
Experimental: Three weeks after PBMC grafting, peripheral blood of the mice was collected, and the proportion of human-derived CD45^+ cells (hCD45 cells) therein was determined by flow cytometry (FACS). After the end of study, the tumors was removed, weighed and photographed.

MDA-MB-436 tumor cells = test: PBMC humanized MDA-MB-436 subcutaneous tumor grafting model, tumor growth inhibition; assay type: in vivo, Mus Musculus, NCG; settings: for Tumor growth inhibition (%): PG-D24, TGI=(1-T/C)x100% from relative tumor volume, mefuparib HCl 40 mg/kg p.o., Tuoyi 10 mg/kg i.p.; for Tumor volume, Grouping (PG-D0): at grouping, start of treatment, mefuparib HCl 40 mg/kg p.o. qod, Tuoyi 10 mg/kg i.p. q4d; for Tumor volume, Administration (PG-D24): day 24 after grouping, mefuparib HCl 40 mg/kg p.o. qod x 13, Tuoyi 10 mg/kg i.p. q4d x 7
Experimental: Species: Mus Musculus, NCG (NOD-Prkdc^em26Cd52II2rg^em26Cd22/N ju), female; weight: 18-22 g; quantity: 55; supplier: GemPharmatech.
MDA-MB-436 tumor cells (YK-CL-075) were purchased from ATCC. The tumor cells were cultured in the Leibovitz's L-15 medium containing inactivated 10% fetal bovine serum, 100 U/mL of penicillin and 100 μg/mL of streptomycin in a 37° C./5% CO2 incubator, and were passaged every 3 to 4 days when the cells were overgrown. The tumor cells in logarithmic phase were used for in vivo tumor grafting.
PBMCs (human peripheral blood mononuclear cells) were purchased from […] (Donor#: A0075).
MDA-MB-436 tumor cells were resuspended in a 1:1 (v:v) mixture of PBS and Matrigel at a concentration of 1×10^8 cells/mL, and were grafted subcutaneously at the right flank of mice at 100 μL/mouse. When the tumor grew to about 1000 mm^3, the tumors were aseptically removed and cut into small pieces having dimensions of about 2 mm×2 mm×2 mm, which were grafted subcutaneously at the right flank of experimental animals. After 2 weeks, PBMCs were resuspended in PBS and grafted into mice in an amount of 2×10^6 cells/mouse. The animals were divided into 4 groups of 10 and treated (the day was recorded as PG-D0) when the tumor grew to about 93 mm^3.
The long and short diameters of the tumor were measured twice every week using a vernier caliper for calculating the tumor volume, and the calculation formula was: volume=0.5×long diameter×[…].
The T/C value was calculated from the tumor volume, where T is the mean relative tumor volume (RTV) of each treatment group and C is the mean RTV of the control group. RTV is the ratio of tumor volume after the treatment to that before the treatment. Tumor growth inhibition (TGI, %)=(1−T/C)×100%.
Inter-group statistical analysis was performed on tumor volume using IBM SPSS Statistics 22.0 software and mixed linear model analysis. Inter-group statistical analysis was performed on tumor weight using One-Way ANOVA analysis, with p<0.05 indicating significant differences.

Water solubility = assay type: physicochemical; settings: times higher than that of olaparib
[3] = cited from earlier work
[4] = patients receiving olaparib monotherapy

## O=C(c1cc(Cc2n[nH]c(=O)c3ccccc23)ccc1F)N1CCN(C(=O)C2CC2)CC1 [olaparib]
[1]; associated with olaparib
  grade 3 adverse event: anemia: 12%
  grade 3 adverse event: neutropenia: 6%
[1]; [4]
  median PFS: 7.0 months
  response rate: 59.9%

## toripalimab [Tuoyi PD-1 monoclonal antibody injection]
[2]
  percentage median of hCD45 cells in peripheral blood compared with the control group: higher than that in the control group
MDA-MB-436 tumor cells
  Tumor growth inhibition (%): 29%
  Tumor volume, Grouping (PG-D0): 94 ± 7 mm^3
  Tumor volume, Administration (PG-D24): 1256 ± 252 mm^3

## CNCc1ccc(-c2cc3cc(F)cc(C(N)=O)c3o2)cc1.Cl [Mefuparib hydrochloride, mefuparib hydrochloride]
Water solubility
  water solubility relative to olaparib: 350 times
[2]
  percentage median of hCD45 cells in peripheral blood compared with the control group: higher than that in the control group
MDA-MB-436 tumor cells; hydrochloride
  Tumor growth inhibition (%): 54%
MDA-MB-436 tumor cells; listed as mefuparib hydrochloride, hydrochloride
  Tumor growth inhibition (%): 54%
MDA-MB-436 tumor cells
  Tumor volume, Grouping (PG-D0): 93 ± 6 mm^3
  Tumor volume, Administration (PG-D24): 761 ± 130 mm^3
[3]
  water solubility: > 35 mg/mL

## durvalumab
[1]; associated with durvalumab
  grade 3 adverse event: pancreatitis: 6%
